Data published in patent US10501473B2, “Fused heterocyclic ring compounds and method of treating retinal disease using same” (THE INDUSTRY & ACADEMIC COOPERATION IN CHUNGNAM NATIONAL …, priority 2014, dated 2019).
Where “and” joins values, the source holds several entries; their conditions need not be identical. Equal values may be shown once.

Assays:
[1] = tested on: retinal degeneration rabbit model; assay: Drug efficacy by ERG (electroretinography) 1; assay type: in vivo; conditions: for response compared to normal (100%) / Drug efficacy (%): ERG; for Wave ratio / Drug efficacy (%): SI model; for Wave ratio: ERG wave A after one week, eye drops 100 μl twice a day, Comparative Example 3 oral 10 mg/rabbit once a day, Normal = 1.00
Protocol: The normal rabbit was anesthetized, which was adapted for 20 minutes in a dark room. Retinal potential difference was measured by ERG equipment. Electroretinography is a method to observe the response of photoreceptor cells with two light intensities. Particularly, A and B waves were measured from 100 to 10000 mcd, and the retinal potential difference measured at 3000 mcd. Drug efficacy was evaluated by observing the photoreceptor cells, for which the stronger response to wave A was selected.
Evaluation of candidate substances for dry macular degeneration was performed using a retinal degeneration rabbit model. The compounds of Comparative Examples 2 and 3 were used as comparative compounds. […] The compound of Comparative Example 3 was orally administered once a day (10 mg/rabbit, dissolved in saline).

[2] = tested on: dry macular degeneration pig model; assay: Drug efficacy by fundoscopy; assay type: in vivo; conditions: IAA 10 mg/kg iv, 7 days after induction, FIG. 13
Protocol: First, to construct a dry macular degeneration pig model, 10 mg/kg of iodoacetic acid (IAA) was dissolved in PBS (phosphate buffered saline) and injected intravenously to a mini pig (Yutacan Micropig). One week after the IAA administration, retinal degeneration was confirmed by retinal fundus photography and fluorescence (Experimental eye research 2012. 97, 137-147), and a schematic diagram illustrating the eye drop instillation of the compounds is shown in FIG. 12.
The eye drop instillation of the compounds of the invention was performed from a day before the IAA administration as shown in FIG. 12. 7 days after the induction of retinal degeneration in the pig, retinal fundus photographs were taken and the results are shown in FIG. 13.

[3] = tested on: dry macular degeneration pig model; assay: Drug efficacy by ERG (electroretinography) 2; assay type: in vivo
Protocol: The experiment was performed by the same manner as described in Experimental Example 10 except that a dry macular degeneration pig model was used instead of the dry macular degeneration rabbit model.

[4] = Solubility in water of doxycycline forms; assay type: physicochemical
[5] = tested on: RGC-5 (rat ganglion cell); assay: Retinal nerve protection under oxygen-glucose deprivation (OGD), LDH assay; assay type: cell-based; conditions: RGC-5, OGD 15 hours, compound 20 μM, DMSO control = 100%
Method in brief: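 RGC-5 cells switched to glucose-free DMEM with compound (20 μM) or 0.1% DMSO and held 15 h at 37° C under anaerobic gas (10% H2, 5% CO2, 85% N2). Cell death from released LDH (formazan, 490 nm), scaled with OGD control as 100% and normal-medium cells as 0%; triplicate wells, experiments in triplicate.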

[6] = target: T1, RIPK1 (receptor-interacting serine/threonine-protein kinase 1) (Homo sapiens (Human), UniProt Q13546); assay: IC50 to RIPK1, immuno-precipitated enzyme with [32P]γ-ATP; assay type: biochemical; conditions: 10-0.05 μM, 100 μM ATP
T1 sequence (Q13546 whole entry, species assumed): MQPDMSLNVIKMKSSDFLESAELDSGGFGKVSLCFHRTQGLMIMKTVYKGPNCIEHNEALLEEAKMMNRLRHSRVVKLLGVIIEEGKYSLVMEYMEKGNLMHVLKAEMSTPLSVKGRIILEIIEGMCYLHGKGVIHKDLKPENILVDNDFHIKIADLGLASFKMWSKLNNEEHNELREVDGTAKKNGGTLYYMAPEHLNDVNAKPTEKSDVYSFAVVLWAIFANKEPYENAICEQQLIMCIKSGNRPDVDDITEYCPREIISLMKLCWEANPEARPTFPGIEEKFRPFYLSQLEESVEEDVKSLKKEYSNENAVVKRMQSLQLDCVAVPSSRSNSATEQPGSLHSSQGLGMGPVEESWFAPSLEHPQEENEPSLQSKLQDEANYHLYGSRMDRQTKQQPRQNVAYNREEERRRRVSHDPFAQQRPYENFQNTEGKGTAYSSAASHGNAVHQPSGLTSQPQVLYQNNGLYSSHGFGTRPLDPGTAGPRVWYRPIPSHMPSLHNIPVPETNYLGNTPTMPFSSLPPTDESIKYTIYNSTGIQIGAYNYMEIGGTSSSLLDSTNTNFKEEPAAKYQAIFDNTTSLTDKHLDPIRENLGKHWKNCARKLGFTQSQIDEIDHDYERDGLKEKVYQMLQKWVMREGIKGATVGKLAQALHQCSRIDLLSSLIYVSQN
Protocol: RIPK1 enzyme immuno-precipitated in HEK293 (Human Embryonic Kidney 293) cell lysate was used as a kinase. The experiment was performed according to the method described in Cell. 12; 137(6):1112-23(2009).
RIPK1 protein was over-expressed in HEK293 cell line, to which lysis buffer (50 mM Tris-Cl [pH 8.0], 150 mM NaCl, 1 mM EDTA, 1% NP-40, 0.4 mM phenylmethylsulfonyl fluoride (PMSF)) was added for cell lysis. Centrifugation was performed at 13,000 rpm for 10 minutes to separate the supernatant. RIPK1 monoclonal antibody (610459, BD Bioscience) and A/G agarose beads (sc-2003, Santa Cruz Biotechnology) were added thereto, followed by immuno-precipitation in a 4° C. rotator for 12 hours.
The compounds of examples of the invention were diluted at the different concentrations of 10 μM˜0.05 μM (10, 5, 1, 0.5, 0.1, 0.05 uM) and mixed with the immuno-precipitated RIPK1 enzyme, followed by reaction in a 24° C. constant-temperature water bath for 15 minutes. Additional reaction was induced for 30 minutes at 30° C. after 100 μM of ATP and 10 μCi[^32P] γ-ATP were added thereto. The reaction mixture was washed with buffer once, to which protein loading buffer was added, followed by heating at 100° C. for 3 minutes. The reaction mixture was then loaded on 8% SDS-PAGE gel. Radioactive image of the phosphorylated RIPK1 was detected with FLA-7000 (GE healthcare). The image Quant TL program was used for the quantification. Based on the results, IC50 of the compound was calculated by using sigmaplot 10.0 program.

[7] = tested on: dry macular degeneration rat model; assay: Retinal cell protection by instillation, sodium iodate rat model, H&E staining; assay type: in vivo; conditions: SI ip 50 mg/kg, eye drops 50 μl twice a day, FIG. 2
Protocol: From 3 days before the administration of sodium iodate (SI) to the 8-week-old dry macular degeneration rat model, the compound of the invention was instillated twice a day (50 μl/each eye drop instillation) and SI (ip, 50 mg/kg) was administered once. Additionally, the compound was instillated twice a day for 7 days. 7 days later, the eyeballs were extracted, followed by H&E staining to investigate retinal cell protection effect (n=3, 6 eyes). FIG. 1 is a schematic diagram illustrating the construction of the dry macular degeneration rat model and the eye drop instillation of the compounds of the invention.
The eyeballs were extracted from the dry macular degeneration rat model constructed by the same manner as described in FIG. 1, followed by histostaining.
To measure the survival rate (%) of retinal pigment epithelial cells, the eyeballs extracted from the experimental rats were fixed in 4% glutaraldehyde solution for 4 hours and embedded in paraffin. Tissue sections were prepared in 5 μm thickness, followed by H&E (Hematoxylin and Eosin) staining. Photomicrographs were taken of 2-3 different areas within the RPE (retinal pigment epithelium) layer on 100× optical microscope (Leica), and the number of stained cells was counted. The number of RPE cells in the normal rat group was regarded as 100%, based on which the survival rate was calculated.

retina of rats = conditions: retinal detachment; cited from earlier work
[8] = target: T1, RIPK1 (receptor-interacting serine/threonine-protein kinase 1); assay: RIPK1 inhibitory activity, autophosphorylation of immuno-precipitated RIPK1 with [32P]γ-ATP; assay type: biochemical; conditions: compound 100 μM; remaining RIPK1 phosphorylation
Method in brief: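 RIPK1 overexpressed in HEK293, immunoprecipitated, preincubated with compound 15 min at 24 °C in HEPES pH 7.6 kinase buffer with Mg2+/Mn2+. Autophosphorylation run 30 min at 30 °C with 100 μM ATP plus [32P]γ-ATP, resolved by SDS-PAGE and quantified by phosphorimaging.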

[9] = tested on: RGC-5 (rat ganglion cell-5); assay: Retinal neuron protection under necroptosis inducing (TCZ; TNFα+cycloheximide+zVAD) condition, LDH assay; assay type: cell-based; conditions: RGC-5, TCZ 15 hours, compound 20 μM, DMSO control = 100%
Protocol: The following experiment was performed to evaluate the retinal neuron protection effect of the compounds of the invention under necroptosis inducing condition.
The retinal ganglion cell line RGC-5 (rat ganglion cell-5) was cultured in DMEM (Dulbecco's modified Eagle's medium) supplemented with 10% FBS (fetal bovine serum) and 1% penicillin/streptomycin. The cells were distributed in a 96-well plate at the density of 8×10^3 cells/well, followed by culture in a 37° C., CO2 incubator for 12 hours. The medium supplemented with TNFα (10 ng/ml), cycloheximide (10 μg/ml), and zVAD (10 μM) (TCZ) was treated with DMSO (0.1%) alone (control) or with the compounds of the invention (20 μM), followed by additional culture in a 37° C., CO2 incubator for 15 hours to induce cell death.
The level of cell death was measured by LDH (lactate dehydrogenase, Roche) assay. The level of the control LDH under TCZ condition was regarded as 100%, and the level of LDH in the cell group cultured in normal medium (10% FBS, DMEM) for the same time was used for the measurement of the relative rate of cell death. The compounds of examples of the invention were treated to wells, each compound for three wells, and then each experiment was performed in triplicate.

[10] = tested on: dry macular degeneration rabbit model; assay: Protection against retinal layer thickness reduction by instillation 2 (ONL thickness); assay type: in vivo; conditions: FIG. 8
Protocol: The eyeballs were extracted from the dry macular degeneration rabbit model used in Experimental Example 7, and the thickness of ONL was measured.

| SMILES | Death of retinal nerve cell (%) [5] | IC50 [6] | retina degeneration by histostaining [7] | activity at 100 µM [8] | Death of retinal nerve cell (%) [9] | also measured |
| --- | --- | --- | --- | --- | --- | --- |
| C[C@H]1c2cccc(O)c2C(=O)C2=C(O)[C@]3(O)C(=O)C(C(N)=O)=C(O)[C@@H](N(C)C)[C@@H]3[C@@H](O)[C@@H]21 [Comparative Example3-HC, doxycycline] | – | – | – | – | – | response compared to normal (100%) ([1]; FIG. 11, listed as 3-HC): 66.9%; response compared to normal (100%) ([1]; FIG. 11, listed as Comparative Example 3-HC): 66.9%; Wave ratio [1]: 0.67; Drug efficacy (%) ([1]; Normal = 100, Veh. = 0): 31%; Drug efficacy (%) ([1]; Normal = 100, Veh. = 0, listed as Comparative Example 3 (HC)): 31%; Drug efficacy (%) ([1]; Normal = 100, Veh. = 0, listed as Comparative Example 3-HC): 31%; retinal fundus photographs [2]: damaged areas (*) were observed; wave A response ([3]; ERG, FIG. 14 and 15): wave A response was reduced; Wave ratio ([3]; IAA model, ERG wave A, Normal = 1.00): 0.38; Drug efficacy (%) ([3]; IAA model, ERG, Normal = 100, Veh. = 0): 18%; solubility in water ([4]; listed as HC): well dissolved in water |
| C[C@H]1c2cccc(O)c2C(=O)C2=C(O)[C@]3(O)C(=O)C(C(N)=O)=C(O)[C@@H](N(C)C)[C@@H]3[C@@H](O)[C@@H]21 [Comparative Example3-MH, doxycycline] | – | – | – | – | – | response compared to normal (100%) ([1]; FIG. 11, listed as 3-MH): 74.1%; response compared to normal (100%) ([1]; FIG. 11, listed as Comparative Example 3-MH): 74.1%; Wave ratio [1]: 0.74; Drug efficacy (%) ([1]; Normal = 100, Veh. = 0): 46%; solubility in water ([4]; listed as MH): not dissolved in water |
| CN1C(=O)C(Cc2c[nH]c3ccccc23)NC1=S (stereo not shown) [Comparative Example 1, 5-((1H-indole-3-yl)methyl)-3-methyl-2-thioxothioxoimidazolidine-4-one, reference compound] | 89.5% and 89.5 ± 10.5% | 95.5 nM | retina degeneration was not observed | – | – | phosphorylation of RIPK1 in the retina (retina of rats): phosphorylation was reduced; photoreceptor degeneration (retina of rats): photoreceptor degeneration was also protected |
| CN1C(=O)NC(Cc2c[nH]c3c(Cl)cccc23)C1=O (stereo not shown) [Comparative Example 2, 5-((7-chloro-1H-indole-3-yl)methyl)-3-methylimidazolidine-2,4-dione, reference compound] | 73.5% and 73.5 ± 10.3% | – | retina degeneration was not observed | – | – | – |
| O=C(c1cc2c(-c3ccc(F)cc3)cccc2s1)N1CCCC1 [Example 35, (4-(4-fluorophenyl)benzo[b]thiophene-2-yl)(pyrrolidine-1-yl)methanone] | 90.0 ± 3.3% | 360 nM | – | 3.5 ± 2.1% | 89.2 ± 8.2% | – |
| O=C(c1cc2c(-c3ccc(F)cc3)cccc2s1)N1CCOCC1 [Example 39, (4-(4-fluorophenyl)benzo[b]thiophene-2-yl)(morpholino)methanone] | 46.2 ± 0.8% | 193 nM | retina degeneration was not observed | 3.7 ± 2.6% | 74.9 ± 9.1% | retinal layer thickness protection effect [10]: 70˜80% and 70-80% |
| O=C(c1cc2c(-c3ccc(F)cc3)cccc2s1)N1CCCOCC1 [Example 52, (4-(4-fluorophenyl)benzo[b]thiophene-2-yl) (1,4-oxazepane-4-yl)methanone] | 52.8 ± 4.4% | 8170 nM | – | 5.5 ± 4.9% | 80.8 ± 2.8% | – |
| O=C(c1cc2c(-c3ccc(F)cc3F)cccc2s1)N1CCOCC1 [Example 63, (4-(2,4-difluorophenyl)benzo[b]thiophene-2-yl)(morpholino)methanone] | 48.3 ± 13.7% | 230 nM | – | 1.5 ± 0.7% | – | – |
| O=C(c1cc2c(-c3cccs3)cccc2s1)N1CCOCC1 [Example 74, morpholino(4-(thiophene-2-yl)benzo[b]thiophene-2-yl)methanone] | 51.4 ± 10.3% | 65.6 nM | – | 4% | – | – |
| O=C(c1cc2c(-c3ccoc3)cccc2s1)N1CCOCC1 [Example 75, (4-(furan-3-yl)benzo[b]thiophene-2-yl)(morpholino)methanone] | 41.7 ± 7.0% | 73.4 nM | – | 3.5 ± 3.5% | – | – |
